Consider 88 compounds from PMC12040169 (PLOS Biology, 2025).

The first data set is described as follows: in vitro. The settings on record: human, hela cells.
The viability is a read-out of living cells in per cent, often relative to untreated cells. For the compound `CNC(=O)Oc1ccc(C)cc1C(=O)N(C)C` [CBK012319], the viability at 28.5 h, 10 µM is 111%.

The data set is the same for the next values; noted with them: human, hela cells, % viability.
Turning to `Cc1nc(Cl)c(C(=O)NCCc2ccc(S(=O)(=O)NC(=O)NC3CCCCC3)cc2)nc1C` [CBK011777], the viability at 28.5 h, 10 µM is 91.3%.
Still for that read-out and setting: with `O=C(COc1cccc(Cl)c1)NCCc1ccc(S(=O)(=O)NC(=O)NC2CCCCC2)cc1` [CBK011798] the figure was 93.4%; with `CCCNCCc1ccc2c(c1)C(=O)N(Cc1ccc(OC)cc1)C2=O` [CBK011826C], 87.3%; with `CNc1cc(NS(=O)(=O)c2ccc(N)cc2)nc(NC)n1` [CBK011865C], 96.1%.
Same read-out and setting: under `COc1ccc(C(O)CNC(C)C)c2c(C)c(C)oc12` (stereo not shown) [CBK011885C] stands 97%; under `O=C(NC1CCCCC1)NS(=O)(=O)c1ccc(CCNC(=O)c2cccs2)cc1` [CBK011888], 86.3%.
Consider `NCC(=O)N(CCC1CCCC1)c1cccc2ccccc12` [CBK011922C], for which the viability at 28.5 h, 10 µM turned out to be 88.2%.
As to `COc1ccccc1C(C)CN(C)C` (stereo not shown) [CBK011948C], the viability at 28.5 h, 10 µM is 91.2%.
Turning to `CCCCOc1ccc(C(=O)OC(Cc2cccc3ccccc23)CN(CC)CC)cc1` (stereo not shown) [CBK011965C], the viability at 28.5 h, 10 µM turned out to be 87.7%.
With `Cc1cn(C2CC(O)C(CO)O2)c(=O)[nH]c1=O` (stereo not shown) [CBK011998], the viability at 28.5 h, 10 µM turned out to be 93.3%.
Take `O=C(O)CCCCC1SCC2NC(=O)NC21` (stereo not shown) [CBK012026G]: the viability at 28.5 h, 10 µM came out at 105%.
`Cc1cc(N)cc(C)c1O` [CBK012062C]: the viability at 28.5 h, 10 µM is 89.9%.
`CC(=O)c1c[nH]c(=O)[nH]c1=O` [CBK012093]: the viability at 28.5 h, 10 µM worked out at 115%.
In the case of `CCN(CC)C(=O)c1cccc(OC)c1` [CBK012105], the viability at 28.5 h, 10 µM stood at 101%.
As to `CC(C)(CN)c1ccccc1` [CBK012106C], the viability at 28.5 h, 10 µM is 81.6%.
`O=C(O)CCN1CCCCC1` [CBK012168C]: the viability at 28.5 h, 10 µM stood at 103%.
Take `COc1ccc(CC(=O)c2ccc(O)cc2O)cc1` [CBK012203]: the viability at 28.5 h, 10 µM came out at 88.2%.
As for `CN(C)CCN(Cc1ccccc1)c1ccccc1` [CBK012223C], the viability at 28.5 h, 10 µM is 114%.
Still for that read-out and setting: with `CS(=O)(=O)NC1CCCCC1` [CBK012234] the figure was 89.3%.
As for `CC(=O)Nc1ccc(/C=N/c2ccccc2)cc1` [CBK012258], the viability at 28.5 h, 10 µM is 96.4%.
Consider `OCC1OC(n2cnc3c(S)ncnc32)C(O)C1O` (stereo not shown) [CBK012260], for which the viability at 28.5 h, 10 µM came to 64.5%.
Turning to `Nc1nc(N2CCCCC2)nc2ccccc12` [CBK012270], the viability at 28.5 h, 10 µM was 114%.
Regarding `Cc1cccc(C(N)=O)c1O` [CBK012294], the viability at 28.5 h, 10 µM was 112%.
Consider `Cc1cc2nc3c(nc2cc1C)CCNCC3` [CBK012302], for which the viability at 28.5 h, 10 µM stood at 91.1%.
Consider `CCCCC(c1ccc(Cl)cc1)N(CCN(C)C)c1ccccn1` (stereo not shown) [CBK012315F], for which the viability at 28.5 h, 10 µM is 86.3%.
With `CCOC(=O)NC(=O)c1ccccc1` [CBK012359], the viability at 28.5 h, 10 µM is 108%.
Same read-out and setting: with `CC(=O)Oc1cc2c(c(OC(C)=O)n1)C(C)NC2=O` (stereo not shown) [CBK012390] the figure was 94.9%; with `O=C(O)CC1CCC2(CC1)Cc1ccccc1C2` [CBK012397], 89.8%.
The same measure, in the same setting: with `CC(C(=O)N(C)C)n1cccc1` (stereo not shown) [CBK012421] the figure was 86.4%; with `COC(=O)c1c(C)c(C(C)=O)n(C)c1C` [CBK012459], 117%; with `COc1ccc(CCNCC2OCCCc3cc(OC)c(OC)cc32)cc1OC` (stereo not shown) [CBK012466C], 94%.
Consider `CN1CCCC(C(O)c2ccccc2)C1` (stereo not shown) [CBK012472], for which the viability at 28.5 h, 10 µM is 96.9%.
The same measure, in the same setting: under `CN(C)CCOC1OC(CO)C(O)C(O)C1O` (stereo not shown) [CBK012476C] stands 94.4%.
Regarding `Cc1[nH]c2c(C(=O)O)cccc2c1-c1ccccc1` [CBK012486], the viability at 28.5 h, 10 µM came to 103%.
Regarding `O=C(NCCNCc1ccccc1)c1ccccc1` [CBK012505], the viability at 28.5 h, 10 µM is 119%.
Turning to `CCC1=C(c2ccc(Cl)cc2)CCC(C(=O)NCCCN(C)C)C1C` (stereo not shown) [CBK012578], the viability at 28.5 h, 10 µM stood at 74.1%.
Still for that read-out and setting: with `CN(C(=O)Cc1ccccc1)c1ccccc1` [CBK012581] the figure was 103%; with `CN(C)CCn1c(=O)c2c(ncn2C)n(C)c1=O` [CBK012590], 115%.
Still for that read-out and setting: with `CC(=O)NCC1CN(c2ccc3c(c2)CCN3C(=O)OC(C)(C)C)C(=O)O1` (stereo not shown) [CBK012600] the figure was 99.7%; with `Cn1c(-c2cc(=O)c(C(=O)O)c[nH]2)n[nH]c1=O` [CBK012603], 79.6%.
On the same count and under the same terms, under `N#C/N=C(/Nc1cccnc1)Oc1ccccc1` [CBK012612] stands 87.3%; under `O=C(c1ccccc1Nc1cccc(C(F)(F)F)c1)N1CCN(c2ccccn2)CC1` [CBK012634], 94.4%; under `Clc1ccc(-n2ccnc2)cc1` [CBK012658], 107%.
Take `COc1ccc(C2N(N3C(=O)CC(=O)NC3=O)C(=O)CS2(=O)=O)cc1OC` (stereo not shown) [CBK012702]: the viability at 28.5 h, 10 µM was determined as 94.8%.
Regarding `Cc1cc(N2CCOCC2)nc(N)n1` [CBK012710], the viability at 28.5 h, 10 µM came to 99.1%.
In the case of `O=c1cc(O)cc(CCc2ccccc2)o1` [CBK012714], the viability at 28.5 h, 10 µM worked out at 117%.
On the same count and under the same terms, under `O=C(NCO)c1ccccc1O` [CBK012717] stands 93.9%; under `CN(c1cncc(Cl)n1)C1CCN(Cc2ccccc2)CC1` [CBK012767F], 77.7%; under `CCC1(CCc2ccccc2)CC(O)=CC(=O)O1` (stereo not shown) [CBK012790], 98.5%.
Take `CCN(Cc1ccccc1)C(=O)Nc1ccccc1` [CBK012816]: the viability at 28.5 h, 10 µM was 94.9%.
On to `O=C(c1ccccc1)N1CCCCC1` [CBK012821], for which the viability at 28.5 h, 10 µM is 99.1%.
Take `Cc1nnsc1[S+]([O-])c1ccc(Br)cc1` (stereo not shown) [CBK012927]: the viability at 28.5 h, 10 µM was 96.1%.
Regarding `Cn1c(C(O)c2ccccc2)n[nH]c1=S` (stereo not shown) [CBK012984], the viability at 28.5 h, 10 µM amounted to 117%.
With `O=C(O)CCSc1cccc(C(F)(F)F)c1` [CBK012986], the viability at 28.5 h, 10 µM came to 111%.
As to `COc1ccc(CNCCN)cc1` [CBK013010], the viability at 28.5 h, 10 µM worked out at 98.2%.
For `CC(C)CC1(C(CN2C(=O)c3ccccc3C2=O)C(=O)NO)CCN(CCc2ccccc2)C1=O` (stereo not shown) [CBK013029], the viability at 28.5 h, 10 µM was found to be 103%.
Turning to `CC(=O)NC[C@H]1CN(c2ccc(C3CNC3)c(F)c2)C(=O)O1` [CBK013035], the viability at 28.5 h, 10 µM worked out at 82.8%.
As to `O=C(O)c1ccc(C(=O)Nc2ccc3c(=O)n4c(nc3c2)/C(=C/c2ccccc2)CC4)cc1` [CBK013048], the viability at 28.5 h, 10 µM was 82.3%.
Turning to `COc1ccccc1OCCNC1CCc2cc(Cl)ccc2C1` (stereo not shown) [CBK013067C], the viability at 28.5 h, 10 µM turned out to be 93.2%.
For the compound `CCCCNC(=O)CCCN(CC)CCC1=CC2(CCCC2)c2ccccc21` [CBK013232], the viability at 28.5 h, 10 µM was 91.7%.
In the case of `O=C(COc1ccc(Cl)cc1)NCCc1ccc(S(=O)(=O)NC(=O)NC2CCCCC2)cc1` [CBK013261], the viability at 28.5 h, 10 µM worked out at 92.4%.
Regarding `NC1CCN(C(=O)c2cc3ccccc3[nH]2)CC1` [CBK013294], the viability at 28.5 h, 10 µM was 89.7%.
As to `CC(C)N(CC(=O)N(c1ccccc1)c1ccccc1)C(C)C` [CBK013303C], the viability at 28.5 h, 10 µM was 96.6%.
The same measure, in the same setting: with `c1ccc2c(c1)/C(=N/OCCCN1CCCCC1)CC21CCCCC1` [CBK013321] the figure was 108%.
As for `CN(C)CCCO/N=C1\CC2(CCCC2)c2ccccc21` [CBK013331], the viability at 28.5 h, 10 µM was found to be 80.7%.
Regarding `Cc1cc(O)ccc1C(CC(=O)O)c1ccccc1` (stereo not shown) [CBK013350], the viability at 28.5 h, 10 µM came out at 100%.
As for `COC1=CC2CCNC(CCCCC3NCCc4cc(OC)c(OC)cc43)C2C=C1OC` (stereo not shown) [CBK013354], the viability at 28.5 h, 10 µM amounted to 87%.
As to `Cc1cc(C(C)(C)C)cc(C)c1S(=O)(=O)NCCSCCN` [CBK013357], the viability at 28.5 h, 10 µM was determined as 97.8%.
For `Cc1cc(C)c(S(=O)(=O)NCCSCCC(=O)O)c(C)c1` [CBK013358], the viability at 28.5 h, 10 µM was 95.7%.
The same measure, in the same setting: under `c1ccc(Nc2cncc(N3CCNCC3)n2)cc1` [CBK013389] stands 100%; under `FC(F)(F)c1cnc(N2CCNCC2)c(Cl)c1` [CBK013400], 92.9%; under `CC(C)(C)OC(=O)N1CCN(c2nccnc2Cl)CC1` [CBK013554], 102%.
Regarding `COc1c(C(=O)O)cc(C)c2c1CCC2C` (stereo not shown) [CBK013617], the viability at 28.5 h, 10 µM amounted to 101%.
`COc1cc2cc(O)c(C)c(NCc3ccco3)c2cc1OC` [CBK013723]: the viability at 28.5 h, 10 µM worked out at 84.4%.
On to `CC1CC(NC(=S)NCc2csc3ccccc23)CC(C)(C)C1` (stereo not shown) [CBK013824], for which the viability at 28.5 h, 10 µM was 90.9%.
Still for that read-out and setting: with `CCn1c(CN2CCN(Cc3ccc4c(c3)OCO4)CC2)n[nH]c1=S` [CBK013828] the figure was 105%; with `CN(C)c1cccc(OCCn2ccnc(N3CCNCC3)c2=O)c1` [CBK013866F], 114%.
As to `S=c1[nH]nc(CN2CCSCC2)n1-c1ccc(Cl)cc1` [CBK013868], the viability at 28.5 h, 10 µM stood at 105%.
The same measure, in the same setting: under `CC(C)(N)CN(Cc1ccccc1)C(=O)/C=C/c1ccccc1` [CBK013891T] stands 90.8%; under `Clc1ccc(OCCOc2nccnc2N2CCNCC2)cn1` [CBK014049G], 92.5%.
As for `CN(C)S(=O)(=O)N1CC2(CCN(C(=O)[C@@H]3CN(C(=O)C(C)(C)NC(=O)OC(C)(C)C)C[C@H]3c3cc4ccccc4o3)CC2)c2ccccc21` [CBK014088], the viability at 28.5 h, 10 µM amounted to 89%.
The same measure, in the same setting: with `Cc1c(Cl)cccc1S(=O)(=O)N1CCCN(c2nc3ccc(Cl)cc3s2)CC1` [CBK014131] the figure was 95.6%; with `O=S(=O)(Nc1nc(-c2sccc2Cl)cs1)c1cc(Cl)ccc1Cl` [CBK014147], 94.2%.
On the same count and under the same terms, under `O=C(c1ccccc1)c1cccc(OCCOc2nccnc2N2CCNCC2)c1` [CBK014250G] stands 96.1%.

The data set is the same for the next values; noted with them: human, hela cells, % viability, bulk resorufin, single well.
As for `CNC(Cc1ccccc1)c1ccccc1OC` (stereo not shown) [CBK011943C], the viability at 28.5 h, 10 µM was 88.6%.
On the same count and under the same terms, with `C1=C(c2ccccc2)CCNC1` [CBK012268C] the figure was 104%; with `Cc1ccc(Cl)cc1N1CCNCC1` [CBK013402], 94.6%.
